Test results taken from patent publication US8168238B2, “Extracts of Aquilaria hulls and use thereof in the treatment of cancer” (priority 2009, dated 2012).
In brackets after ≈: the same amount, converted by molar mass.

Legend:
[1] = test system: P-388 leukemia cells; assay: MTT assay in P-388 leukemia cells; type: cell-based; conditions: for IC50: Mus musculus, P388, P-388 cells; for concentrations that inhibited cell proliferation in P-388 cells: Table 9
Procedure: HT cells were treated with the diluted cucrubitacin E and I (100-1.56 μg/ml). After the cells were treated for 24 hours, cell viability was determined by MTT assay, which quantitatively measures the metabolic activity of living cells. […] Please see Table 9.
In addition to HT29 cells, P-388 leukemia cells were also determined by MTT assay. […] Please see Table 9.

[2] = test system: HT29 cells; assay: MTT cell viability assay in HT29 cells; type: cell-based, human; conditions: for concentrations that greatly reduced cell viability in HT29 cells: 24 hours, MTT, Table 9; for IC50: Homo sapiens, HT-29, 24 h, read-out: IC50 on HT29 cells
Procedure: HT cells were treated with the diluted cucrubitacin E and I (100-1.56 μg/ml). After the cells were treated for 24 hours, cell viability was determined by MTT assay, which quantitatively measures the metabolic activity of living cells.
The effects of the extract of Aquilaria agallocha Roxb. hulls on cell toxicity in T24 cells (human bladder carcinoma cells), HT29 cells (human colon adenocarcinoma cells), HeLa cells (cervical carcinoma cells), AGS cells (gastric epithelial cancer cells) and Hep G2 lo cells (human hepatocellular liver carcinoma cells) were tested. The above-mentioned cells were treated with the extract of Aquilaria agallocha Roxb. hulls. The procedures of the cell toxicity test were the same as those mentioned in Example 5.

[3] = Partition coefficient between layers of a two-phase solvent system (HPLC peak area); type: physicochemical; conditions: Hexane-EtOAc—MeOH—H2O 12.24.16.9, from peak areas of lower and upper layer
[4] = test system: HT29 cells; assay: Cell cycle distribution of HT29 cells by flow cytometry; type: cell-based, human; conditions: increasing concentrations, FIG. 5
From the text: The cell cycle of treated cells was examined by flow cytometry.

[5] = test system: HT29 cells; assay: Cell morphology of HT29 cells, Giemsa staining, optical microscope; type: cell-based, human; conditions: different concentrations, 24 hours, 10% Giemsa, FIG. 4
[6] = From the text: Sephadex LH-20 gel (1.5 cm i.d.×36 cm) was used in the molecular sieve chromatography and methanol was used as the mobile phase.

SMILES	IC50 [1] [µg/mL]	concentrations that inhibited cell proliferation in P-388 cells [1]	concentrations that greatly reduced cell viability in HT29 cells [2]	IC50 [2] [µg/mL]	partition coefficient [3]	cell cycle distribution, sub-G1 population [4]	cell morphology of HT29 cells [5]	solubility, in words [6]
CC(=O)OC(C)(C)/C=C/C(=O)[C@](C)(O)C1[C@H](O)C[C@@]2(C)C3CC=C4C(C=C(O)C(=O)C4(C)C)[C@]3(C)C(=O)C[C@]12C (some centres unmarked) [Cucurbitacin E, cucurbitacin E]	6.5 (≈ 11.7 µM)	above 6.5 μM	above 14.1 μM	14.1 (≈ 25.3 µM)	0.90	sub-G1 populations increased	the nucleus were squeezed and the chromatin was condensed	–
CC(C)(O)/C=C/C(=O)[C@](C)(O)C1[C@H](O)C[C@@]2(C)C3CC=C4C(C=C(O)C(=O)C4(C)C)[C@]3(C)C(=O)C[C@]12C (some centres unmarked) [Cucurbitacin I, cucurbitacin I]	7.4 (≈ 14.4 µM)	> 7.4 µM	> 15.8 µM	15.8 (≈ 30.7 µM)	0.42	sub-G1 populations increased	the nucleus were squeezed and the chromatin was condensed	–
CC(=O)OC(C)(C)/C=C/C(=O)[C@](C)(O)C1[C@H](O)C[C@@]2(C)C3CC=C4C(C=C(O[C@@H]5OC(CO)[C@@H](O)C(O)C5O)C(=O)C4(C)C)[C@]3(C)C(=O)C[C@]12C (some centres unmarked) [cucurbitacin E glucoside]	–	–	–	–	0.05	–	–	–
CC(C)(O)/C=C/C(=O)[C@](C)(O)C1[C@H](O)C[C@@]2(C)C3CC=C4C(C=C(O[C@@H]5OC(CO)[C@@H](O)C(O)C5O)C(=O)C4(C)C)[C@]3(C)C(=O)C[C@]12C (some centres unmarked) [cucurbitacin I glucoside]	–	–	–	–	0.03	–	–	–
O=c1c2cc(O)c(O)cc2oc2cc(O)c([C@@H]3O[C@H](CO)[C@@H](O)[C@H](O)[C@H]3O)c(O)c12 [mangiferin]	–	–	–	–	–	–	–	hard to dissolve in methanol
